Measurements taken from patent US10947213B1 (Merck Patent GmbH, priority 2015, dated 2021).

target: T1, TLR7/NFKb HEK cells (Homo sapiens, UniProt Q9NYK1); assay: HEK Cell Assay (TLR7/NFKb reporter, Steady-Glo luciferase readout); assay type: cell-based; details: 30 min compound preincubation, then R*48 agonist for 5 hours, read-out: Potency
T1 construct: expressed in transfected cells; host or cells: HEK cells (TLR7/NFKb reporter line)
T1 sequence (Q9NYK1 27-1049): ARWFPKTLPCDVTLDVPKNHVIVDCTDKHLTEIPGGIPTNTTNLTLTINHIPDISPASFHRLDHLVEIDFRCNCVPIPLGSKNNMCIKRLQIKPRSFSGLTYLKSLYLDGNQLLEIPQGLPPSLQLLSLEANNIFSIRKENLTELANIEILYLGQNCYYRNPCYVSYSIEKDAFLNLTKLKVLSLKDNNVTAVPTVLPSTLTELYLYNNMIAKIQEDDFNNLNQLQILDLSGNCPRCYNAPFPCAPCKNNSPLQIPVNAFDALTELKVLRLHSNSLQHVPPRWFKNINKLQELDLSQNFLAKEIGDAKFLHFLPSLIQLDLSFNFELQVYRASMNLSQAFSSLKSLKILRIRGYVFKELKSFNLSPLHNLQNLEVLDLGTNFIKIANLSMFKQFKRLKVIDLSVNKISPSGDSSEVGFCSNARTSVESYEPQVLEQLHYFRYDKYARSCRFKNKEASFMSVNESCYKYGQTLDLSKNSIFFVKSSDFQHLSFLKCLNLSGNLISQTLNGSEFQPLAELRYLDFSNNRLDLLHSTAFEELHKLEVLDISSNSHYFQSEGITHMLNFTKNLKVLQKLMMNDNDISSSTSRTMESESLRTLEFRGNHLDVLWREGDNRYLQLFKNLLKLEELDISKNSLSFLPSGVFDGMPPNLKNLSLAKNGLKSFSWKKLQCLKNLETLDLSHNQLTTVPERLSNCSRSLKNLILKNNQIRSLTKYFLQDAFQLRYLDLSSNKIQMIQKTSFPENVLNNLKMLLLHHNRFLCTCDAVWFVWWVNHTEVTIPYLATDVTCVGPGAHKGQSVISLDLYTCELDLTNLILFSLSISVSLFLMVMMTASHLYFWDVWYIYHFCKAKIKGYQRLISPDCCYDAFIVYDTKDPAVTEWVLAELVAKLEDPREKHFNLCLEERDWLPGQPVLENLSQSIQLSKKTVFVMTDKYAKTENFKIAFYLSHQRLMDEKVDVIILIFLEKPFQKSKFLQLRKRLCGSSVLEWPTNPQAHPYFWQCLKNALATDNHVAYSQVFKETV
How it was run: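 Steady-Glo luminescence after 5 h stimulation with R*48 agonist, following 30 min compound preincubation. Assay run in HEK cells carrying a TLR7/NFKb luciferase reporter, plated at 5000 cells/well and grown 24 h at 37° C (10% CO2) before treatment.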

| IC50 | SMILES |
| --- | --- |
| < 1000 nM | C[C@H]1C[C@@H](NC(=O)C2(O)CC2)CN(c2ccc(C#N)c3nccnc23)C1 [Compound 230, N-[(3R,5S)-1-(8-cyanoquinoxalin-5-yl)-5-methylpiperidin-3-yl]-1-hydroxycyclopropane-1-carboxamide] |
| < 1000 nM | C[C@H]1C[C@@H](NC(C)(C)CO)CN(c2ccc(C#N)c3nccnc23)C1 [Compound 231, 8-[(3R,5S)-3-[(1-hydroxy-2-methylpropan-2-yl)amino]-5-methylpiperidin-1-yl]quinoxaline-5-carbonitrile] |
| < 1000 nM | C[C@H]1C[C@@H](NC(=O)CC2CCN(C)CC2)CN(c2ccc(C#N)c3nccnc23)C1 [Compound 232, N-[(3R,5S)-1-(8-cyanoquinoxalin-5-yl)-5-methylpiperidin-3-yl]-2-(1-methylpiperidin-4-yl)acetamide] |
| < 1000 nM | C[C@H]1C[C@@H](NC(=O)CC2(C)CCN(C)CC2)CN(c2ccc(C#N)c3nccnc23)C1 [Compound 233, N-[(3R,5S)-1-(8-cyanoquinoxalin-5-yl)-5-methylpiperidin-3-yl]-2-(1,4-dimethylpiperidin-4-yl)acetamide] |
| < 1000 nM | C[C@H]1C[C@@H](NC(=O)CC2CCN(CC(F)F)CC2)CN(c2ccc(C#N)c3nccnc23)C1 [Compound 234, N-[(3R,5S)-1-(8-cyanoquinoxalin-5-yl)-5-methylpiperidin-3-yl]-2-[1-(2,2-difluoroethyl)piperidin-4-yl]acetamide] |
| < 1000 nM | C[C@H]1C[C@@H](NC(=O)C2CC(F)(F)C2)CN(c2ccc(C#N)c3nccnc23)C1 [Compound 235, N-[(3R,5S)-1-(8-cyanoquinoxalin-5-yl)-5-methylpiperidin-3-yl]-3,3-difluorocyclobutane-1-carboxamide] |
| < 1000 nM | C[C@H]1C[C@@H](NC(=O)C2CCN(C)C2)CN(c2ccc(C#N)c3nccnc23)C1 (stereo partly drawn) [Compound 236, N-[(3R,5S)-1-(8-cyanoquinoxalin-5-yl)-5-methylpiperidin-3-yl]-1-methylpyrrolidine-3-carboxamide] |
| < 1000 nM | C[C@H]1C[C@@H](NC(=O)CN2CCOCC2)CN(c2ccc(C(F)(F)F)c3ncccc23)C1 [Compound 239, N-[(3R,5S)-5-methyl-1-[8-(trifluoromethyl)quinolin-5-yl]piperidin-3-yl]-2-(morpholin-4-yl)acetamide] |
| < 1000 nM | C[C@H]1C[C@@H](NC(=O)CO)CN(c2ccc(C(F)(F)F)c3ncccc23)C1 [Compound 240, 2-hydroxy-N-[(3R,5S)-5-methyl-1-[8-(trifluoromethyl)quinolin-5-yl]piperidin-3-yl]acetamide] |
| < 1000 nM | C[C@H]1C[C@@H](NC(=O)C2(O)CC2)CN(c2ccc(C(F)(F)F)c3ncccc23)C1 [Compound 241, 1-hydroxy-N-[(3R,5S)-5-methyl-1-[8-(trifluoromethyl)quinolin-5-yl]piperidin-3-yl]cyclopropane-1-carboxamide] |
| 1000 to 10000 nM | C[C@H]1C[C@@H](NC(C)(C)CO)CN(c2ccc(C(F)(F)F)c3ncccc23)C1 [Compound 242, 2-methyl-2-[[(3R,5S)-5-methyl-1-[8-(trifluoromethyl)quinolin-5-yl]piperidin-3-yl]amino]propan-1-ol] |
| < 1000 nM | C[C@H]1C[C@@H](NC(=O)CN2CCN(C)CC2)CN(c2ccc(C(F)(F)F)c3ncccc23)C1 [Compound 243, N-[(3R,5S)-5-methyl-1-[8-(trifluoromethyl)quinolin-5-yl]piperidin-3-yl]-2-(4-methylpiperazin-1-yl)acetamide] |
| < 1000 nM | C[C@H]1C[C@@H](NC(=O)CC2CCN(C)CC2)CN(c2ccc(C(F)(F)F)c3ncccc23)C1 [Compound 244, N-[(3R,5S)-5-methyl-1-[8-(trifluoromethyl)quinolin-5-yl]piperidin-3-yl]-2-(1-methylpiperidin-4-yl)acetamide] |
| < 1000 nM | C[C@H]1C[C@@H](NC(=O)CC2(C)CCN(C)CC2)CN(c2ccc(C(F)(F)F)c3ncccc23)C1 [Compound 245, 2-(1,4-dimethylpiperidin-4-yl)-N-[(3R,5S)-5-methyl-1-[8-(trifluoromethyl)quinolin-5-yl]piperidin-3-yl]acetamide] |
| < 1000 nM | C[C@H]1C[C@@H](NC(=O)CC2CCN(CC(F)F)CC2)CN(c2ccc(C(F)(F)F)c3ncccc23)C1 [Compound 246, 2-[1-(2,2-difluoroethyl)piperidin-4-yl]-N-[(3R,5S)-5-methyl-1-[8-(trifluoromethyl)quinolin-5-yl]piperidin-3-yl]acetamide] |
| < 1000 nM | C[C@H]1C[C@@H](NC(=O)C2CC(F)(F)C2)CN(c2ccc(C(F)(F)F)c3ncccc23)C1 [Compound 247, 3,3-difluoro-N-[(3R,5S)-5-methyl-1-[8-(trifluoromethyl)quinolin-5-yl]piperidin-3-yl]cyclobutane-1-carboxamide] |
| < 1000 nM | C[C@H]1C[C@@H](NC(=O)C2CCN(C)C2)CN(c2ccc(C(F)(F)F)c3ncccc23)C1 (stereo partly drawn) [Compound 248, 1-methyl-N-[(3R,5S)-5-methyl-1-[8-(trifluoromethyl)quinolin-5-yl]piperidin-3-yl]pyrrolidine-3-carboxamide] |
| < 1000 nM | C[C@H]1C[C@@H](NC(=O)CN2CCOCC2)CN(c2ccc(C(F)(F)F)c3nccnc23)C1 [Compound 249, N-[(3R,5S)-5-methyl-1-[8-(trifluoromethyl)quinoxalin-5-yl]piperidin-3-yl]-2-(morpholin-4-yl)acetamide] |
| < 1000 nM | C[C@H]1C[C@@H](NC(=O)CO)CN(c2ccc(C(F)(F)F)c3nccnc23)C1 [Compound 250, 2-hydroxy-N-[(3R,5S)-5-methyl-1-[8-(trifluoromethyl)quinoxalin-5-yl]piperidin-3-yl]acetamide] |
| 1000 to 10000 nM | C[C@H]1C[C@@H](NC(=O)C2(O)CC2)CN(c2ccc(C(F)(F)F)c3nccnc23)C1 [Compound 251, 1-hydroxy-N-[(3R,5S)-5-methyl-1-[8-(trifluoromethyl)quinoxalin-5-yl]piperidin-3-yl]cyclopropane-1-carboxamide] |
| 1000 to 10000 nM | C[C@H]1C[C@@H](NC(C)(C)CO)CN(c2ccc(C(F)(F)F)c3nccnc23)C1 [Compound 252, 2-methyl-2-[[(3R,5S)-5-methyl-1-[8-(trifluoromethyl)quinoxalin-5-yl]piperidin-3-yl]amino]propan-1-ol] |
| < 1000 nM | C[C@H]1C[C@@H](NC(=O)CC2CCN(C)CC2)CN(c2ccc(C(F)(F)F)c3nccnc23)C1 [Compound 253, N-[(3R,5S)-5-methyl-1-[8-(trifluoromethyl)quinoxalin-5-yl]piperidin-3-yl]-2-(1-methylpiperidin-4-yl)acetamide] |
| < 1000 nM | C[C@H]1C[C@@H](NC(=O)CN(C)C)CN(c2ccc(C(F)(F)F)c3nccnc23)C1 [Compound 254, 2-(dimethylamino)-N-[(3R,5S)-5-methyl-1-[8-(trifluoromethyl)quinoxalin-5-yl]piperidin-3-yl]acetamide] |
| < 1000 nM | C[C@H]1C[C@@H](NC(=O)CC2(C)CCN(C)CC2)CN(c2ccc(C(F)(F)F)c3nccnc23)C1 [Compound 255, 2-(1,4-dimethylpiperidin-4-yl)-N-[(3R,5S)-5-methyl-1-[8-(trifluoromethyl)quinoxalin-5-yl]piperidin-3-yl]acetamide] |
| < 1000 nM | C[C@H]1C[C@@H](NC(=O)CC2CCN(CC(F)F)CC2)CN(c2ccc(C(F)(F)F)c3nccnc23)C1 [Compound 256, 2-[1-(2,2-difluoroethyl)piperidin-4-yl]-N-[(3R,5S)-5-methyl-1-[8-(trifluoromethyl)quinoxalin-5-yl]piperidin-3-yl]acetamide] |
| 1000 to 10000 nM | C[C@H]1C[C@@H](NC(=O)C2CC(F)(F)C2)CN(c2ccc(C(F)(F)F)c3nccnc23)C1 [Compound 257, 3,3-difluoro-N-[(3R,5S)-5-methyl-1-[8-(trifluoromethyl)quinoxalin-5-yl]piperidin-3-yl]cyclobutane-1-carboxamide] |
| < 1000 nM | C[C@H]1C[C@@H](NC(=O)C2CCN(C)C2)CN(c2ccc(C(F)(F)F)c3nccnc23)C1 (stereo partly drawn) [Compound 258, 1-methyl-N-[(3R,5S)-5-methyl-1-[8-(trifluoromethyl)quinoxalin-5-yl]piperidin-3-yl]pyrrolidine-3-carboxamide] |
| < 1000 nM | C[C@H]1C[C@@H](NC(=O)CN2CCN(C)CC2)CN(c2ccc(C(F)(F)F)c3nccnc23)C1 [Compound 259, N-[(3R,5S)-5-methyl-1-[8-(trifluoromethyl)quinoxalin-5-yl]piperidin-3-yl]-2-(4-methylpiperazin-1-yl)acetamide] |
